Where a name gives a salt, the structure may show the parent alone. Read-outs that look alike come from different tables or passages of the source.
Experiments:
[1] = system: S. aureus 133; experiment: Minimum inhibitory concentration (MIC), S. aureus 133; format: cell-based
Experimental: (§1) Determination of the Minimum Inhibitory Concentration (MIC)
(§2) The minimum inhibitory concentration (MIC) is the minimum concentration of an antibiotic with which the growth of a test microbe is inhibited over 18-24 h. The inhibitor concentration can thereby be determined by standard microbiological methods (see, for example, The National Committee for Clinical Laboratory Standards. Methods for dilution antimicrobial susceptibility tests for bacteria that grow aerobically; approved standard-fifth edition. NCCLS document M7-A5 [ISBN 1-56238-394-9]. NCCLS, 940 West Valley Road, Suite 1400, Wayne, Pa. 19087-1898 USA, 2000). The MIC of the compounds of the invention is determined in the liquid dilution test on the 96-well microtiter plate scale. The bacterial microbes are cultivated in a minimal medium (18.5 mM Na2HPO4, 5.7 mM KH2PO4, 9.3 mM NH4Cl, 2.8 mM MgSO4, 17.1 mM NaCl, 0.033 μg/ml of thiamine hydrochloride, 1.2 μg/ml of nicotinic acid, 0.003 μg/ml of biotin, 1% glucose, 25 μg/ml of each proteinogenic amino acid with the exception of phenylalanine; [H.-P. Kroll; unpublished]) with addition of 0.4% BH broth (test medium). In the case of Enterococcus faecium L4001, heat-inactivated fetal calf serum (FCS; GibcoBRL, Germany) is added to the test medium in a final concentration of 10%. Overnight cultures of the test microbes are diluted to an OD578 of 0.001 (to 0.01 in the case of enterococci) in fresh test medium, and incubated 1:1 with dilutions of the test substances (1:2 dilution steps) in test medium (200 μl final volume). The cultures are incubated at 37° C. for 18-24 hours; enterococci in the presence of 5% CO2.
(§3) The lowest substance concentration in each case at which no visible bacterial growth occurs any longer is defined as the MIC.
(§4) Alternative Method for Determining the Minimum Inhibitory Concentration (MIC)
The minimum inhibitory concentration (MIC) is the minimum concentration of an antibiotic with which the growth of a test microbe is inhibited over 18-24 h. The inhibitor concentration can thereby be determined by standard microbiological methods with modified medium in an agar dilution test (see, for example, The National Committee for Clinical Laboratory Standards. Methods for dilution anti-microbial susceptibility tests for bacteria that grow aerobically; approved standard-fifth edition. NCCLS document M7-A5 [ISBN 1-56238-394-9]. NCCLS, 940 West Valley Road, Suite 1400, Wayne, Pa. 19087-1898 USA, 2000). The bacterial microbes are cultivated on 1.5% agar plates which contain 20% defibrinated horse blood. The test microbes, which are incubated overnight on Columbia blood agar plates (Becton-Dickinson), are diluted in PBS, adjusted to a microbe count of about 5×10^5 microbes/ml and placed dropwise (1-3 μl) on test plates. […]

[2] = system: S. aureus T17; experiment: Minimum inhibitory concentration (MIC), biphenomycin-resistant S. aureus T17; format: cell-based; details: for MIC: Staphylococcus aureus, T17
Experimental: as §1, §2, §3, §4
The minimum inhibitory concentration (MIC) is the minimum concentration of an antibiotic with which the growth of a test microbe is inhibited over 18-24 h. The inhibitor concentration can thereby be determined by standard microbiological methods with modified medium in an agar dilution test (see, for example, The National Committee for Clinical Laboratory Standards. Methods for dilution anti-microbial susceptibility tests for bacteria that grow aerobically; approved standard-fifth edition. NCCLS document M7-A5 [ISBN 1-56238-394-9]. NCCLS, 940 West Valley Road, Suite 1400, Wayne, Pa. 19087-1898 USA, 2000). The bacterial microbes are cultivated on 1.5% agar plates which contain 20% defibrinated horse blood. The test microbes, which are incubated overnight on Columbia blood agar plates (Becton-Dickinson), are diluted in PBS, adjusted to a microbe count of about 5×10^5 microbes/ml and placed dropwise (1-3 μl) on test plates. The test substances comprise different dilutions of the test substances (1:2 dilution steps). The cultures are incubated at 37° C. in the presence of 5% CO2 for 18-24 hours.
The lowest substance concentration in each case at which no visible bacterial growth occurs any longer is defined as the MIC and is reported in μg/ml.
The S. aureus strain T17 is isolated in vivo. CFW1 mice are infected intraperitoneally with 4×10^7 S. aureus 133 cells per mouse. 0.5 h after the infection, the animals are treated intravenously with 50 mg/kg of biphenomycin B. The kidneys are removed from the surviving animals on day 3 after the infection. […]

[3] = target: S. aureus 133 Translation; experiment: S. aureus in vitro transcription-translation assay (firefly luciferase, S30 extract); format: biochemical; details: 50% inhibition of the translation of firefly luciferase
Source text: In Vitro Transcription-Translation with S. aureus Extracts
Construction of an S. aureus Luciferase Reporter Plasmid
In order to construct a reporter plasmid which can be used in an in vitro transcription-translation assay from S. aureus the plasmid pBESTluc (Promega Corporation, USA) is used. The E. coli tac promoter present in this plasmid in front of the firefly luciferase is replaced with the capA1 promoter with corresponding Shine-Dalgarno sequence from S. aureus. The primers CAPF or 5′-[…]-[…]-3′ and CAPRev 5′-[…]-3′ are used for this. The primer CAPFor contains the capA1 promoter, the ribosome binding site and the 5′ region of the luciferase gene. After PCR using pBESTluc as template it is possible to isolate a PCR product which contains the firefly luciferase gene with the fused capA1 promoter. This is, after restriction with ClaI and HindIII, ligated into the vector pBESTluc which has likewise been digested with ClaI and HindIII. The resulting plasmid p1a can be replicated in E. coli and be used as template in the S. aureus in vitro transcription-translation test.
Preparation of S30 Extracts from S. aureus
Six litres of BHI medium are inoculated with a 250 ml overnight culture of an S. aureus strain and allowed to grow at 37° C. up to an OD600 nm of 2-4. The cells are harvested by centrifugation and washed in 500 ml of cold buffer A (10 mM Tris acetate, pH 8.0, 14 mM magnesium acetate, 1 mM DTT, […]). After renewed centrifugation, the cells are washed in 250 ml of cold buffer A with 50 mM KCl, and the resulting pellets are frozen at −20° C. for 60 min. The pellets are thawed on ice in 30 to 60 min and taken up to a total volume of 99 ml in buffer B (10 mM Tris acetate, pH 8.0, 20 mM magnesium acetate, 1 mM DTT, 50 mM KCl). 1.5 ml portions of lysostaphin (0.8 mg/ml) in buffer B are provided in 3 precooled centrifuge cups and each mixed with 33 ml of the cell suspension. The samples are incubated at 37° C., for 45 to 60 min shaking occasionally, before 150 μl of a 0.5 M DTT solution are added. The lysed cells are centrifuged at 30 000×g and 4° C. for 30 min. The cell pellet is taken up in buffer B and then centrifuged again under the same conditions, and the collected supernatants are combined. The supernatants are centrifuged again under the same conditions, and 0.25 volumes of buffer C (670 mM Tris acetate, pH 8.0, 20 mM magnesium acetate, 7 mM Na3 phosphoenolpyruvate, 7 mM DTT, 5.5 mM ATP, 70 μM amino acids (complete from Promega), 75 μg of pyruvate kinase (Sigma, Germany))/ml are added to the upper ⅔ of the supernatant. […]
The inhibition of protein biosynthesis of the compounds can be shown in an in vitro transcription-translation assay. […] The activity of the resulting luciferase can be detected by luminescence measurement. […]

[4] = system: S. aureus RN4220; experiment: Spontaneous resistance rate, S. aureus RN4220; format: cell-based; details: agar plate containing 2 μg/ml of biphenomycin B (10×MIC), 37° C. overnight
Experimental: The spontaneous resistance rates for the compounds of the invention are determined as follows: the bacterial microbes are cultivated in 30 ml of a minimal medium (18.5 mM Na2HPO4, 5.7 mM KH2PO4, 9.3 mM NH4Cl, 2.8 mM MgSO4,17.1 mM NaCl, 0.033 μg/ml of thiamine hydrochloride, 1.2 μg/ml of nicotinic acid, 0.003 μg/ml of biotin, 1% glucose, 25 μg/ml of each proteinogenic amino acid with the addition of 0.4% BH broth) at 37° C. over-night, centrifuged at 6000×g for 10 min and resuspended in 2 ml of a phosphate-buffered physiological NaCl solution (about 2×10^9 microbes/ml). […] The resulting colonies (cfu) are counted.
The S. aureus strain RN4220Bi^R is isolated in vitro. For this purpose, 100 μl portions of an S. aureus RN4220 cell suspension (about 1.2×10^8 cfu/ml) are plated out on an antibiotic-free agar plate (18.5 mM Na2HPO4, 5.7 mM KH2PO4, 9.3 mM NH4Cl, 2.8 mM MgSO4, 17.1 mM NaCl, 0.033 μg/ml of thiamine hydrochloride, 1.2 μg/ml of nicotinic acid, 0.003 μg/ml of biotin, 1% glucose, 25 μg/ml of each proteinogenic amino acid with the addition of 0.4% BH broth and 1% agarose) and on an agar plate containing 2 μg/ml of biphenomycin B (10×MIC), and incubated at 37° C. overnight. Whereas about […] cells grow on the antibiotic-free plate, about 100 colonies grow on the antibiotic-containing plate, corresponding to a resistance rate of 1×10^−5. […]

[5] = system: S. aureus RN4220Bi^R; experiment: MIC against biphenomycin-resistant S. aureus RN4220Bi^R; format: cell-based; details: colony isolated in vitro from antibiotic-containing plate
Experimental: The S. aureus strain RN4220Bi^R is isolated in vitro. For this purpose, 100 μl portions of an S. aureus RN4220 cell suspension (about 1.2×10^8 cfu/ml) are plated out on an antibiotic-free agar plate (18.5 mM Na2HPO4, 5.7 mM KH2PO4, 9.3 mM NH4Cl, 2.8 mM MgSO4, 17.1 mM NaCl, 0.033 μg/ml of thiamine hydrochloride, 1.2 μg/ml of nicotinic acid, 0.003 μg/ml of biotin, 1% glucose, 25 μg/ml of each proteinogenic amino acid with the addition of 0.4% BH broth and 1% agarose) and on an agar plate containing 2 μg/ml of biphenomycin B (10×MIC), and incubated at 37° C. overnight. Whereas about […] cells grow on the antibiotic-free plate, about 100 colonies grow on the antibiotic-containing plate, corresponding to a resistance rate of 1×10^−5. Some of the colonies grown on the antibiotic-containing plate are tested for the biphenomycin B MIC. One colony with a MIC of >50 μM is selected for further use, and the strain is referred to as RN4220Bi^R.

[6] = system: S. aureus 133; experiment: Systemic infection with S. aureus 133 (mouse sepsis model); format: in vivo; details: female CFW1 mice, i.p. infection, i.v. therapy 30 minutes after infection, survival over 6 days
[7] = Staphylococcus aureus, 133, read-out: MIC S. aureus 133

Compound | IC50 [3] [nM] | MIC ([2]; biphenomycin-resistant strain) [µg/mL] | MIC [1, 7] [µg/mL] | also measured
NC[C@H](O)C[C@@H]1NC(=O)[C@@H](N)Cc2cc(ccc2O)-c2ccc(O)c(c2)C[C@@H](C(=O)O)NC1=O [Biphenomycin B, biphenomycin B, reference compound] | 1500 | – | – | MIC S. aureus 133 [1]: <0.03 µg/mL; MIC S. aureus T17 ([2]; biphenomycin-resistant strain): >32 µg/mL; MIC of selected colony (strain T17) ([2]; colony isolated in vivo from kidney of treated mice): > 50 µM; resistance rate [4]: 1×10^−5; MIC of selected colony (strain RN4220Bi^R) [5]: > 50 µM
NCCC[C@H](N)CNC(=O)C[C@H](CCCN)NC(=O)C[C@@H]1Cc2cccc(c2)-c2ccc(O)c(c2)C[C@H](N)C(=O)N[C@@H](CCCN)C(=O)N1 [Example 1, (3S)-6-Amino-3-({[(8S11,S14S)-14-amino-11-(3-aminopropyl)-17-hydroxy-10,13-dioxo-9,12-diazatricyclo[14.3.1.1^2,6]henicosa-1(20),2(21),3,5,16,18-hexaen-8-yl]acetyl{amino)-N-[(2S)-2,5-diaminopentyl]hexanamidepentahydrochloride] | 350 | 2 | – | MIC ([1]; Staphylococcus aureus, 133; read-out: MIC S. aureus 133): 2 µg/mL
NCCC[C@H](NC(=O)C[C@@H]1Cc2cccc(c2)-c2ccc(O)c(c2)C[C@H](N)C(=O)N[C@@H](CCCN)C(=O)N1)C(=O)NCCN [Example 2, N^2-{[(8S,11S,14S)-14-Amino-11-(3-aminopropyl)-17-hydroxy-10,13-dioxo-9,12-diazatricyclo[14.3.1.1^2,6]henicosa-1(20), 2(21),3,5,5,16,18-hexaen-8-yl]acetyl}-N-(2-aminoethyl)-L-ornithinamide tetrahydrochloride] | – | – | – | therapeutic activity ED100 [6]: 1.25 mg/kg
NCCC[C@H](N)CNC(=O)C[C@@H]1Cc2cccc(c2)-c2ccc(O)c(c2)C[C@H](N)C(=O)N[C@@H](CCCN)C(=O)N1 [Example 5, 2-[(8S,11S,14S)-14-Amino-11-(3-aminopropyl)-17-hydroxy-10,13-dioxo-9,12-diazatricyclo[14.3.1.1^2,6]henicosa-1(20),2(21),3,5,16,18-hexaen-8-yl]-N-[(2S)-2,5-diaminopentyl]acetamide tetrahydrochloride] | 700 | 2 | 2 | –
NCCC[C@H](N)CNC(=O)C[C@@H](N)CCCNC(=O)[C@H](CCCN)NC(=O)C[C@@H]1Cc2cccc(c2)-c2ccc(O)c(c2)C[C@H](N)C(=O)N[C@@H](CCCN)C(=O)N1 [Example 7, (3S)-3-Amino-6-[(N^2-{[(8S,11S,14S)-14-amino-11-(3-aminopropyl)-17-hydroxy-10,13-dioxo-9,12-diazatricyclo[14.3.1.1^2,6]henicosa-1(20), 2(21), 3,5,16,18-hexaen-8-yl]acetyl}-L-ornithyl)amino]-N-[(2S)-2,5-diaminopentyl]hexanamide hexahydrochloride] | 200 | 2 | 2 | –
